Reference: US20040068113A1, “Substituted polycyclic aryl and heteroaryl pyridines useful for selective inhibition of the coagulation cascade” (priority 2003, published 2004)

Tests used:
Assay type in all cases: biochemical
[1] = target: T1, Trypsin (type 1× from porcine pancreas) (Sus scrofa, UniProt P00761); experiment: Trypsin Assay; details: read-out: Trpysin II IC50
T1 construct: Trypsin (5 ug/ml; type 1× from porcine pancreas); purchased Sigma, St. Louis Mo; host or cells: porcine pancreas
Method: Trypsin (5 ug/ml; type 1× from porcine pancreas) and 0.375 mM N-α-Benzoyl-L-arginine-p-nitroanilide (L-BAPNA) are added to a 96-well assay plate containing either inhibitor or buffer (50 mM Tris-HCl, pH 8.0, 100 mM NaCl, 0.1% BSA). The reactions, in a final volume of 100 ul are measured immediately at 405 nm to determine background absorbance. The plate is incubated at room temperature for 60 min, at which time the rate of hydrolysis of the substrate is measured by monitoring the reaction at 405 nm for the release of p-nitroaniline. Percent inhibition of trypsin activity is calculated from OD405 nm value from the experimental and control sample.
(§1) Recombinant soluble TF, consisting of amino acids 1-219 of the mature protein sequence was expressed in E. coli and purified using a Mono Q Sepharose FPLC. Recombinant human VIIa was purchased from American Diagnostica, Greenwich Conn. and chromogenic substrate N-Methylsulfonyl-D-phe-gly-arg-p-nitroaniline was prepared by American Peptide Company, Inc., Sunnyvale, Calif. Factor Xa was obtained from Enzyme Research Laboratories, South Bend Ind., thrombin from Calbiochem, La Jolla, Calif., and trypsin and L-BAPNA from Sigma, St. Louis Mo. The chromogenic substrates S-2765 and S-2238 were purchased from Chromogenix, Sweden.

Human thrombin = Human thrombin (Homo sapiens, UniProt P00734); experiment: Thrombin Assay; details: read-out: Thrombin II IC50
Method: (§2) Human thrombin (0.28 nm)and 0.06 mM H-D-Phenylalanyl-L-pipecolyl-L-arginine-p-nitroaniline dihydrochloride are added to a 96-well assay plate containing either inhibitor or buffer (50 mM Tris-HCl, pH 8.0, 100 mM NaCl, 0.1% BSA). The reaction, in a final volume of 100 ul is measured immediately at 405 nm to determine background absorbance. The plate is incubated at room temperature for 60 min, at which time the rate of hydrolysis of the substrate is measured by monitoring the reaction at 405 nm for the release of p-nitroaniline. Percent inhibition of thrombin activity is calculated from OD405nm value from the experimental and control sample.
as §1

[2] = target: T2, recombinant soluble tissue factor and recombinant human factor VIIa (TF-VIIa) (Homo sapiens, UniProt P08709); experiment: TF-VIIa Assay
T2 construct: purchased American Diagnostica, Greenwich Conn; host or cells: soluble TF made in house in E. coli
Method: as §2, with “In this assay 100 nM recombinant soluble tissue factor and 2 nM recombinant human factor VIIa” for “Human thrombin (0.28 nm)and 0.06 mM H-D-Phenylalanyl-L-pipecolyl-L-arginine-p-nitroaniline dihydrochloride”, “containing 0.4 mM of the substrate, N-Methylsulfonyl-D-phe-gly-arg-p-nitroaniline and” for “containing”, “(5 mM CaCl2, 50” for “(50”, “TF-VIIa” for “thrombin”, “OD405 nm” for “OD405nm”
as §1

Human factor Xa = target: T3, Human factor Xa (Homo sapiens, UniProt P00742); experiment: Xa Assay
T3 construct: purchased Enzyme Research Laboratories, South Bend Ind
Method: as §2, with “factor Xa (0.3 nM) and 0.15” for “thrombin (0.28 nm)and 0.06”, “N-a-Benzyloxycarbonyl-D-arginyl-L-glycyl-L-arginine-p-nitroaniline-dihydrochloride (S-2765)” for “H-D-Phenylalanyl-L-pipecolyl-L-arginine-p-nitroaniline dihydrochloride”, “Xa” for “thrombin”, “OD405 nm” for “OD405nm”
as §1

[3] = read-out: Factor Xa percent inhibition

T3 sequence (P00742 235-488 limits assumed): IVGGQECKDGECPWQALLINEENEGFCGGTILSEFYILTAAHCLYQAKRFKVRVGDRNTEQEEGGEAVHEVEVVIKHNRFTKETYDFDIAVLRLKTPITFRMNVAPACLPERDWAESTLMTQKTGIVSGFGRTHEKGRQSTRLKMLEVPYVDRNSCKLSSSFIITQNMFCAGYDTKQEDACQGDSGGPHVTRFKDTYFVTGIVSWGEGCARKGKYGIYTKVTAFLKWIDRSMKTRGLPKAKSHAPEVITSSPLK
T3 sequence (P00742 41-179 limits assumed): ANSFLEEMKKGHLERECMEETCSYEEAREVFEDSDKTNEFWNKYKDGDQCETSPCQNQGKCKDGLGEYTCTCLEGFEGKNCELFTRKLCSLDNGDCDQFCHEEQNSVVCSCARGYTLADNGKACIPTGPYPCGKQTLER
T1 sequence (P00761 9-231): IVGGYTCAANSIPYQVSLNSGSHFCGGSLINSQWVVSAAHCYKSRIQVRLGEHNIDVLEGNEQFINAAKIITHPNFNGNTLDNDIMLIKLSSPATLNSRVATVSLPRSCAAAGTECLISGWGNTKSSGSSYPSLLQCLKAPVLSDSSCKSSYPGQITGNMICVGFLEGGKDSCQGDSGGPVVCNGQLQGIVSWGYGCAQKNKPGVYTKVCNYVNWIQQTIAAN
T2 sequence (P08709 213-466 limits assumed): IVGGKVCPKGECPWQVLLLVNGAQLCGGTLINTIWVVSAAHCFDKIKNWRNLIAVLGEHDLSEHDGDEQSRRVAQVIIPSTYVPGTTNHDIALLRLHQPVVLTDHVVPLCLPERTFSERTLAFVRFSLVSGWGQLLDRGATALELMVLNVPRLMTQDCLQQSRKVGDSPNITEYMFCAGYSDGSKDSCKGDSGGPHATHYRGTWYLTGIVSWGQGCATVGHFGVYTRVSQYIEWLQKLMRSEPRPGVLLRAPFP
T2 sequence (P08709 61-212 limits assumed): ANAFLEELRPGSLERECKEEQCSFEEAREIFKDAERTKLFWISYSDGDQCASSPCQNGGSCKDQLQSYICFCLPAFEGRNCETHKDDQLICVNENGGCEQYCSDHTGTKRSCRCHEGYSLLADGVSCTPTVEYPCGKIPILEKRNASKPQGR
T2 sequence (P13726 33-251 partner limits assumed): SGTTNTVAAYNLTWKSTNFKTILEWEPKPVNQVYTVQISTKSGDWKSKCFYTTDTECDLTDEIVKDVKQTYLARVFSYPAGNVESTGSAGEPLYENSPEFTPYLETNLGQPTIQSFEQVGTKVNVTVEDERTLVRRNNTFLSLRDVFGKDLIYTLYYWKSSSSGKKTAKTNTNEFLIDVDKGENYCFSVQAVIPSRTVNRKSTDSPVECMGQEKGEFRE

| SMILES | IC50 [1] [nM] | IC50 (Human thrombin) [nM] | inhibition at 100 µM ([2]; at 100 uM, read-out: TF-VIIA percent inhibition) [%] | IC50 [2] [nM] | IC50 (Human factor Xa) [nM] | inhibition at 30 µM (Human factor Xa; [3]) [%] | inhibition at 100 µM (Human factor Xa; @ 100 uM, read-out: Factor Xa percent inhibition) [%] |
| --- | --- | --- | --- | --- | --- | --- | --- |
| CC(C)Nc1ccc(/C=C/c2ccccc2)c(CC(=O)NCc2ccc(C(=N)N)cc2)[n+]1[O-] [Example 12] | 990 | 29000 | 23 |  |  |  |  |
| CC(C)Nc1ccc(-c2cccc(CO)c2)c(CC(=O)NCc2ccc(C(=N)N)cc2)[n+]1[O-] [Example 9] | 210 | 6600 |  | 1720 | > 100000 |  |  |
| N=C(N)c1ccc(CNC(=O)Cc2c(-c3cccc(N)c3)ccc(NC3CCC3)[n+]2[O-])cc1 [Example 2] | 20 | 7130 |  | 70 |  | 26 |  |
| CC(=O)c1cccc(-c2ccc(NC(C)C)[n+]([O-])c2CC(=O)NCc2ccc(C(=N)N)cc2)c1 [Example 10] | 35 | 3000 |  | 1700 |  |  | 40 |
| CC(C)Nc1ccc(-c2cc(N)cc(N)c2)c(CC(=O)NCc2ccc(C(=N)N)cc2)[n+]1[O-] [Example 7] | 22 | 60700 |  | 84 |  |  |  |
| CC(C)Nc1ccc(-c2csc3ccccc23)c(CC(=O)NCc2ccc(C(=N)N)cc2)[n+]1[O-] [Example 11] | 79 | 39500 |  | 5600 | 21000 |  |  |
| CC(C)Nc1ccc(-c2cc(N)cc(C(=O)O)c2)c(CC(=O)NCc2ccc(C(=N)N)cc2)[n+]1[O-] [Example 3] | 158 | > 100000 |  | 720 | > 100000 |  |  |
| N=C(N)c1ccc(CNC(=O)Cc2nc(NC3CCC3)ccc2-c2cccc(N)c2)cc1 [Example 1] | 60 | 710 |  | 2460 |  | 27 |  |
| CC(C)Nc1ccc(-c2ccccc2OCc2ccccc2)c(CC(=O)NCc2ccc(C(=N)N)cc2)[n+]1[O-] [Example 5] | 100 | 370 |  | 2380 | > 100000 |  |  |
| CC(C)Nc1ccc(-c2cccc(N)c2)c(CC(=O)NCc2ccc(C(=N)N)cc2)[n+]1[O-] [Example 14] | < 140 | 9900 |  | 155 | > 100000 |  |  |
| CC(C)Nc1ccc(-c2ccccc2Oc2ccccc2)c(CC(=O)NCc2ccc(C(=N)N)cc2)[n+]1[O-] [Example 6] | 170 | 86500 |  | 6940 | > 100000 |  |  |
| CC(C)Nc1ccc(-c2ccccc2CN2C(=O)c3ccccc3C2=O)c(CC(=O)NCc2ccc(C(=N)N)cc2)[n+]1[O-] [Example 13] | 121 | 12000 |  | 1420 | > 100000 |  |  |
